From the NIST ThermoML archive (doi:10.1021/acs.jced.7b00297)
Numbers after ± are expanded uncertainties.

Assay: mn = molality of the nth substance listed, in mol/kg
Details: 84.5 kPa, Liquid; for speed of sound: Single path-length method; for mass density: Vibrating tube method

CCCCn1cc[n+](C)c1.O=S(=O)([O-])C(F)(F)F [1-butyl-3-methylimidazolium trifluoromethanesulfonate] + O
Details	mass density, 288.15 K [kg/m3]	mass density, 298.15 K [kg/m3]	mass density, 308.15 K [kg/m3]	mass density, 318.15 K [kg/m3]	speed of sound, 288.15 K [m/s]	speed of sound, 298.15 K [m/s]	speed of sound, 308.15 K [m/s]	speed of sound, 318.15 K [m/s]
m1 = 0.0164	1000.27 ± 4	998.176 ± 4	995.134 ± 4	991.289 ± 4	1468.7 ± 1	1498.5 ± 1	1521.1 ± 1	1537.4 ± 1
m1 = 0.0259	1000.93 ± 4	998.823 ± 4	995.765 ± 4	991.906 ± 4	1469.8 ± 1	1499.4 ± 1	1521.8 ± 1	1537.9 ± 1
m1 = 0.042	1002.06 ± 4	999.922 ± 4	996.836 ± 4	992.952 ± 4	1471.8 ± 1	1501 ± 1	1523 ± 1	1538.8 ± 1
m1 = 0.0699	1003.99 ± 4	1001.79 ± 4	998.662 ± 4	994.732 ± 4	1475 ± 1	1503.5 ± 1	1524.8 ± 1	1540 ± 1
m1 = 0.1072	1006.54 ± 4	1004.28 ± 4	1001.08 ± 4	997.093 ± 4	1479.2 ± 1	1506.6 ± 1	1527.2 ± 1	1541.7 ± 1
m1 = 0.1455	1009.12 ± 4	1006.78 ± 4	1003.52 ± 4	999.47 ± 4	1483.8 ± 1	1510.2 ± 1	1529.8 ± 1	1543.6 ± 1
m1 = 0.3021	1019.31 ± 4.1	1016.66 ± 4.1	1013.11 ± 4.1	1008.81 ± 4	1499.6 ± 1.1	1522.1 ± 1.1	1538.4 ± 1.1	1549.2 ± 1.1
m1 = 0.4645	1029.21 ± 4.1	1026.22 ± 4.1	1022.39 ± 4.1	1017.83 ± 4.1	1513.4 ± 1.1	1532.3 ± 1.1	1545.4 ± 1.1	1553.4 ± 1.1
m1 = 0.6651	1040.6 ± 4.2	1037.21 ± 4.2	1033.03 ± 4.1	1028.16 ± 4.1	1526.7 ± 1.1	1541.5 ± 1.1	1551.1 ± 1.1	1556.2 ± 1.1
m1 = 0.8671	1051.21 ± 4.2	1047.44 ± 4.2	1042.94 ± 4.2	1037.8 ± 4.2	1535.6 ± 1.1	1546.9 ± 1.1	1553.8 ± 1.1	1556.5 ± 1.1
